Reference: ChEMBL document CHEMBL1157539, “Thousands of chemical starting points for antimalarial lead identification” (Nature, 2010)

System: Plasmodium falciparum
Experiment: GSK_TCMDC: Inhibition of Plasmodium falciparum 3D7 in whole erythrocytes, using parasite LDH activity as an index of growth.
Assay type: functional, organism-based
Details: not given

SMILES	XC50 [nM]
S=C(Nc1ccc2c(c1)OCCO2)NC1CCC(CN2CCC(c3c[nH]c4ccccc34)CC2)CC1 (configuration not stated)	1000

Same assay, conditions: Plasmodium falciparum, 3D7

SMILES	XC50 [nM]
Cc1nc(-c2cccc(Nc3nccc(NCC(O)c4ccc(C(F)(F)F)cc4)n3)c2)cs1 (configuration not stated)	511
O=C(/C=C/c1cccs1)NCC(NCCCNc1cc(=O)c2ccccc2[nH]1)c1cc(Br)cc(Br)c1 (configuration not stated)	888
CCCCN(CCCC)Cc1cc2ccccc2cc1O	348
CCN(CC)CCN(Cc1ccc(-c2ccc(C(F)(F)F)cc2)cc1)C(=O)Cn1c(CCc2c(F)cccc2F)nc(=O)c2ccccc21	637
CCOCCCNc1ncc(-c2ccsc2)c(-c2nc(C)cs2)n1	272
CCOc1cc(/C=N/Nc2nc3ccccc3[nH]2)ccc1OCc1ccc([N+](=O)[O-])cc1	995
O=C(Nc1cccc(CN2CCCN(Cc3ccc(O)cc3)CC2)c1)c1cccc(C(F)(F)F)c1	314
CS(=O)(=O)c1ccc(CCNCc2ccc(-c3ccc(CN(C(=O)C4CC(=O)c5ccccc54)C4Cc5ccccc5C4)cc3)nc2)cc1 (configuration not stated)	858
Cc1nc2ccc(Nc3nccc(-c4c(-c5cccc(NC(=O)c6c(F)cccc6F)c5)nn5ccccc45)n3)cc2nc1C	1070
O=C(c1ccc(-c2cccc(-c3nc4cc(F)ccc4[nH]3)c2)cc1)N1CCCCC1CN1CCC(O)C1 (configuration not stated)	1400
Fc1cccc(COc2ccc(Nc3ncnc4sc(C#CCNC5CCC5)cc34)cc2Cl)c1	875
COc1ccc2nccc([C@@H](O)CN3CCC(NCc4nc5cc(F)ccc5o4)CC3)c2c1	149
COc1ccc2nccc([C@@H](O)CN3CCC(NCC(O)Cc4ccccc4)CC3)c2c1 (some centres not stated)	671
COc1cc(NC(=O)N2CCOC(CCN3CCC4(CCc5ccccc54)CC3)(c3ccc(Cl)c(Cl)c3)C2)cc(OC)c1OC (configuration not stated)	156
O=C(NCc1ccccc1)Nc1cccc(-c2cccc(-c3nc4cc(C(F)(F)F)ccc4[nH]3)c2)c1	264
COc1cc(-n2c(CN3CCCC3)nc3cc(-c4ccc(Cl)cc4)sc3c2=O)ccc1OCCN1CCCC1	1040
CCOC(=O)c1ccc(NC(=O)N[C@@H](Cc2ccc(O)cc2)C(=O)NC2CCN(Cc3ccc4c(c3)OCO4)CC2)cc1	1060
Cc1cccc2nc(-c3ccc(-c4cccc(CNCc5cccc(N)c5)c4)cc3)[nH]c12	390
CS(=O)(=O)CCNCc1cccc(-c2cc3c(Nc4ccc(OCc5ccccc5)cc4)ncnc3cn2)c1	734
O=C(NCc1cccc(Cl)c1)c1ccc(CNC2CCN(Cc3ccccc3)CC2)cc1	884
Oc1ccccc1CN1CCC2(CCCN(Cc3ccccc3F)C2)C1 (configuration not stated)	679
NS(=O)(=O)c1cncc(-c2ccc3nccc(-c4cn[nH]c4)c3n2)c1	526
COc1ccc(NS(=O)(=O)c2cccc(C(=O)Nc3ccc(C(F)(F)F)cc3)c2)cc1N1CCN(CC(C)C)CC1	838
CC1(C)NC(N)=NC(=N)N1OCCCc1cc(Cl)c(Cl)cc1Cl	3.2

SMILES	XC50 [nM]
CCOCn1c(-c2ccccc2)cc2c3c(N)nc(N)nc3ccc21	186
COc1ccccc1C1CCN(C2CCC(NC(=O)/C=C/c3cccc(Cl)c3)CC2)CC1 (configuration not stated)	1030
O=[N+]([O-])c1cccc(CNCC2CCN(Cc3ccc4ccccc4c3)CC2)c1	876
Cc1cnc(NCCc2ccc(F)cc2)nc1N[C@@H](CC(C)C)C(=O)Nc1ccccc1	970
CN(C)S(=O)(=O)n1ccc2c3c(N)nc(N)nc3ccc21	45.9
Cc1nc(-c2cccc(Nc3nccc(NCC(O)c4ccccc4)n3)c2)cs1 (configuration not stated)	793
Cc1ccc(NC(=O)c2cccc(CN3CCCN(Cc4cccc(O)c4)CC3)c2)cc1F	705
CCn1cnc2c(N3CCCS3(=O)=O)cc(C(=O)N[C@@H](Cc3ccccc3)[C@H](O)CNC(C)(C)c3cccc(C(F)(F)F)c3)cc21	227
CCOc1cc(Cl)c(C(C)NC(=O)c2ccccc2)cc1OCC (configuration not stated)	875
Cc1ccccc1C1CCN(C2CCC(NC(=O)c3ccc(-c4ccccc4F)o3)CC2)CC1 (configuration not stated)	1050
CCc1cc(NC2CCN(C)CC2)nc(Nc2ccc(C)cc2)n1	694
COc1ccc2nccc([C@@H](O)CN3CCC(NC(=O)c4ccc(Cl)c(OC)c4)CC3)c2c1	792
COc1ccc(C(=O)C2CC2CN(C)CC(O)c2cc(C)c(OC)cc2C)cc1 (configuration not stated)	968
COc1ccc(CN2C(=S)N(Cc3ccccc3)C(=O)C2CC(=O)Nc2ccccc2)cc1OC (configuration not stated)	844
CN1CCN(c2ccnc3ccc(NC(=O)Nc4ccc5c(c4)CCCC5=O)cc23)CC1	132
COCCN1CCN(Cc2ccc(-c3ccc(-c4nc5cc(F)ccc5[nH]4)cc3)cc2)CC1	717
O=c1ccc(CNc2nc(NCCc3ccccc3)nc3ccc(Cl)cc23)c[nH]1	783
CCCCCCc1cc(O)c2c3c(c(=O)oc2c1)CCN(C)C3	671
Fc1ccccc1C=NN=c1cc[nH]c2ccccc12	894
O=c1nc(NCCCNCc2cc3c(Cl)cc(Cl)cc3[nH]2)[nH]c2ccccc12	993
COc1cc(NC(=O)N2CCOC(CCN3CCC(c4ccccc4)CC3)(c3ccc(Cl)c(Cl)c3)C2)cc(OC)c1OC (configuration not stated)	65.1
CCN(CCNc1nc(NCCc2cnc[nH]2)nc(N(CCC#N)Cc2ccccc2)n1)c1cccc(C)c1	715
CC(C)C1=C[C@H]2C[C@]3(C4OCCO4)[C@@H]4CC[C@@H](C)[C@H]4C[C@@]2(COCc2cccc(C#N)c2)[C@]13C(=O)OC(c1ccccc1)c1ccccc1	1790
c1cc(Cc2ccc(Nc3c4ccccc4nc4ccccc34)cc2)cc(Nc2c3ccccc3nc3ccccc23)c1	143

SMILES	XC50 [nM]
CC(ON1C(N)=NC(N)=NC1(C)C)c1ccccc1 (configuration not stated)	10.9
O=C(Cc1c[nH]cn1)Nc1ccc(-c2cccc(-c3nc4cc(F)ccc4[nH]3)c2)cc1	797
N#CCc1ccc(Nc2nccc(Nc3ccc(Oc4ccccc4)cc3)n2)cc1	805
COc1ccc(Oc2ccc(Nc3ccnc4ccc(C(F)(F)F)cc34)cc2)cc1OC	1060
CN(C)CC(=O)N(Cc1ccc(Cl)c(Cl)c1)Cc1csc(-c2ccc(CNCc3ccccc3)cc2)n1	1050
O=C(/C=C/c1ccc(Cl)c(Cl)c1)N1CCC(CCN2CCC(c3nc4cc(O)ccc4[nH]3)CC2)CC1	344
Cc1ccc([S+]([O-])Cc2ccc(Cl)cc2)cc1 (configuration not stated)	196
O=C(c1cccs1)N1N=C(c2cccs2)CC1c1cccc([N+](=O)[O-])c1 (configuration not stated)	820
S=C(Nc1ccc2c(c1)OCCO2)NC1CCC(CN2CCC(c3c[nH]c4ccccc34)CC2)CC1 (configuration not stated)	653
COc1ccc(CCn2c(=N)c(C(=O)NCc3ccccc3)cc3c(=O)n4ccccc4nc32)cc1	751
O=C(Nc1ccc(Cl)cc1)c1ccc(CN2CCCN(Cc3ccc(F)cc3)CC2)cc1	966
Fc1ccc(CNc2ccc3ncc(-c4cccnc4)n3n2)cc1	928
O=C(Nc1cccc(-c2nn3ncccc3c2-c2ccnc(Nc3ccccc3)n2)c1)c1c(F)cccc1F	726
Cc1cc(-c2ccc(NC(=O)N3CCc4cc(Br)c(N5CCN(C)CC5)cc43)cc2)cc(C)n1	1010
CC(=O)Nc1cccc(C(=O)Nc2nc3ccc(-c4cc(=O)[nH]c(Nc5ccccc5Cl)n4)cc3[nH]2)c1	689
CCNc1cc(C)nc(Nc2ccc(NC(=O)c3c(F)cccc3Cl)cc2)n1	1120
O=C(CN1CCN(C(=O)c2ccco2)CC1)Nc1ccc(Br)cc1Cl	773
CN1C(C)(C)CC(NC(=O)c2ccc(-c3cc4cc(Cl)c(Cl)cc4[nH]3)o2)CC1(C)C	1120
CCN(Cc1ccccc1)CC(O)c1ccc(Cl)c(Cl)c1 (configuration not stated)	182
COc1cc2c(c(OC)c1OC)C[C@H]1c3c(cc4c(c3-2)OCO4)CCN1C	969
CC(C)Cc1c(O)nc(SCCN2CCOCC2)[nH]c1=O	1260
Cc1c(Cl)cccc1S(=O)(=O)Nc1cccc(CCN2CCC(N3CCCCC3)CC2)c1	830
c1ccc(C(OCCC2CCN(Cc3cccc4cccnc34)CC2)c2ccccc2)cc1	874
CCOc1ccc(-c2nonc2NC(=O)c2ccc(Cl)cc2)cc1OCC	988

SMILES	XC50 [nM]
CCN1CCN(c2cc(C)c3cc(NC(=O)c4cc(OC)cc(OC)c4)ccc3n2)CC1	156
CCCCN(CCCC)CCCCCCNc1c2ccccc2nc2ccccc12	776
CC1CN(Cc2cccc(C#N)c2)CCN1c1ccc(NC(=O)c2cccs2)cc1 (configuration not stated)	675
COc1cc(Nc2ccnc3cc(-c4ccncc4)ccc23)cc(OC)c1OC	1080
CC(=O)N(Cc1ccccc1-c1ccc(CNCCc2ccccc2)cc1)C1CCN(Cc2ccccc2)CC1	475
CN(C)CCn1cc(C(=O)c2cc(Cl)ccc2O)cc1-c1nc2ccccc2c(=O)[nH]1	634
CN1CCN(CCCN(Cc2ccc(-c3cccc(CNC4CCCC4)c3)cc2)C(=O)Nc2ccccc2)CC1	1120
CCCN(CC1CC1)c1ncc(-c2cccc(CNCc3ccccc3O)c2)cn1	700
CC1CCCC(C)N1C[C@@H](O)CNS(=O)(=O)c1cccc(C(F)(F)F)c1 (some centres not stated)	692
O=C(Cc1ccccc1)NC(CCN1CCC(NC(=O)c2ccc(Cl)cc2)CC1)c1ccc(Cl)c(Cl)c1 (configuration not stated)	916
CCCCCN1CCCC(CNS(=O)(=O)c2cccc(C(=O)Nc3ccc(C(F)(F)F)cc3)c2)C1 (configuration not stated)	829
CC1CN(Cc2cccc(F)c2)CCN1c1ccc(NC(=O)c2ccc(F)cc2)cc1 (configuration not stated)	580
CCCCc1ccc(CCNCCCCCCNCCc2ccc(O)c(O)c2)cc1	1070
CC(Cc1ccc(NC(=O)c2ccc(CC(C)NCc3ccc(Cl)c(Cl)c3)cc2)cc1)NCCc1cccc(Cl)c1 (configuration not stated)	1000
Cc1cccc2nc(C(=O)Nc3nc(CN4CCC(C)CC4)cs3)cn12	758
CCCCc1ccc(S(=O)(=O)Nc2ccc3c(c2)CCN(Cc2c[nH]c4cnccc24)CC3)cc1	674
O=c1cc(NCCCNCc2cc(Br)ccc2F)[nH]c2ccccc12	854
CS(=O)(=O)Nc1ccc2c(C3CCN(CC4CCN(C(=O)/C=C/c5ccc(Cl)c(Cl)c5)CC4)CC3)c[nH]c2c1	761
CS(=O)(=O)NCCCNCc1ccc(-c2ccc(-c3nc4cc(C(F)(F)F)ccc4[nH]3)s2)cc1	515
CN(C)CCNC(=O)c1csc(Nc2ccc(Cl)c(Cl)c2)n1	225
CCN(CC)CCNC(=O)c1ccc(N/C=C2\C(=O)Nc3ccc(S(=O)(=O)Cc4c(Cl)cccc4Cl)cc32)cc1	840
CN1CCN(c2ccnc3ccc(NC(=O)Nc4ccc5c(c4)CCC5=O)cc23)CC1	330
Cc1cc(CNCC2CCC(CNCCCc3ccccc3)CC2)ccc1O (configuration not stated)	871
Cn1nc(-c2cccc(CNC3CCc4ccccc43)c2)c2cnc(NCCCN3CCCC3)nc21 (configuration not stated)	877
